Measured values as given in the supplement of paper PMC10307832.

Compound: CN(C/C=C/C1=CC=C(C=C1)Cl)CC2=CC=CC=C2N(CCO)S(=O)(=O)C3=CC=C(C=C3)OC [KN-93]
Assay: relative viability (nuclei count vs DMSO), 5 days (fraction); higher = more cells survive
How it was run: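 Lung cancer cell lines were seeded into 1536-well plates, kept overnight at 37 °C and pinned with five library-drug doses (not always all listed) spaced by √10. After 5 days, nuclei were Hoechst-stained, imaged at 4× and counted with MetaXpress. Viability is treated-well nuclei over vehicle-well nuclei, taken as a median across plates. Plates needed control CV below 25% and at least one doubling.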

| Cell Line | relative viability (0.08 µM) | relative viability (0.253 µM) | relative viability (2.53 µM) | relative viability (8 µM) |
| --- | --- | --- | --- | --- |
| 201T | 1.03 | 0.85 | 0.958 | 0.684 |
| A549 | 0.79 | 1.06 | 1.26 | 0.553 |
| A-427 | 1.03 | 1.21 | 0.976 | 0.531 |
| ABC-1 | 0.999 | 0.99 | 0.773 | 0.312 |
| BEN | 0.881 | 0.969 | 1.08 | 0.688 |
| CAL-12T | 1.09 | 0.983 | 1.09 | 0.744 |
| COR-L23 | 0.848 | 1.09 | 1.08 | 0.665 |
| COR-L 105 | 1.02 | 0.932 | 0.808 | 0.682 |
| ChaGo-K-1 | 0.887 | 1.14 | 0.999 | 0.72 |
| EKVX | 0.839 | 0.768 | 1.04 | 0.691 |
| EMC-BAC-2 | 1.05 | 1.04 | 1.08 | 0.794 |
| EPLC-272H | 0.899 | 0.965 | 0.92 | 0.59 |
| H3255 | 1.03 | 0.992 | 0.969 | 0.666 |
| HARA | 0.871 | 0.943 | 0.827 | 0.565 |
| HCC-15 | 0.862 | 1.03 | 1.08 | 0.893 |
| HCC-44 | 1.02 | 0.912 | 1.12 | 0.764 |
| HCC-78 | 0.941 | 0.828 | 1.04 | 0.744 |
| HCC-366 | 0.835 | 1.1 | 1.11 | 0.863 |
| HCC-827 | 1.08 | 1.05 | 1.05 | 0.851 |

| Cell Line | relative viability (0.08 µM) | relative viability (0.253 µM) | relative viability (2.53 µM) | relative viability (8 µM) |
| --- | --- | --- | --- | --- |
| HOP-62 | 1.06 | 1.07 | 1.17 | 0.733 |
| IA-LM | 0.896 | 0.948 | 1.47 | 0.875 |
| LC-2-ad | 0.965 | 1.16 | 0.995 | 0.725 |
| LCLC-97TM1 | 0.975 | 1.29 | 1.09 | 0.601 |
| LCLC-103H | 0.869 | 1.14 | 0.945 | 0.812 |
| LK-2 | 1.07 | 1.17 | 1.37 | 0.846 |
| LOU-NH91 | 0.988 | 0.834 | 0.963 | 0.842 |
| LU99A | 0.953 | 0.951 | 1.01 | 0.74 |
| LXF-289 | 0.942 | 1.07 | 1.02 | 0.828 |
| NCI-H23 | 0.997 | 1.18 | 1.02 | 0.56 |
| NCI-H322M | 0.872 | 0.941 | 0.959 | 0.768 |
| NCI-H358 | 0.834 | 1.04 | 0.916 | 0.539 |
| NCI-H441 | 0.709 | 1.14 | 1.3 | 0.731 |
| NCI-H460 | 0.821 | 1.06 | 1.03 | 0.652 |
| NCI-H520 | 0.91 | 1.05 | 1.14 | 0.815 |
| NCI-H522 | 1.04 | 0.986 | 1.04 | 0.783 |
| NCI-H596 | 0.913 | 1.15 | 0.941 | 0.5 |
| NCI-H647 | 0.985 | 1.25 | 1.01 | 0.813 |
